What follows are compounds tested against SMYD3 (Homo sapiens (Human), UniProt Q9H7B4) (assay: SMYD3 biochemical assay (SMYD3 enzyme assay on MEKK2 protein substrate, 3H-SAM scintillation proximity assay)). Details: read-out: SMYD3 Biochem IC50 (μM)*.
In short: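 Detection used scintillation proximity beads to capture ³H-methylated GST-MEKK2 after quench with 100 uM final cold SAM. The reaction was started by SAM/MEKK2 addition after a 30 min RT compound–enzyme preincubation. Enzyme was tag-free full-length human SMYD3 from E. coli, in buffer of 25 mM Tris-Cl pH 8.0, 1 mM TCEP, 0.005% BSG, 0.005% Tween 20.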

SMYD3, sequence (Q9H7B4 whole entry): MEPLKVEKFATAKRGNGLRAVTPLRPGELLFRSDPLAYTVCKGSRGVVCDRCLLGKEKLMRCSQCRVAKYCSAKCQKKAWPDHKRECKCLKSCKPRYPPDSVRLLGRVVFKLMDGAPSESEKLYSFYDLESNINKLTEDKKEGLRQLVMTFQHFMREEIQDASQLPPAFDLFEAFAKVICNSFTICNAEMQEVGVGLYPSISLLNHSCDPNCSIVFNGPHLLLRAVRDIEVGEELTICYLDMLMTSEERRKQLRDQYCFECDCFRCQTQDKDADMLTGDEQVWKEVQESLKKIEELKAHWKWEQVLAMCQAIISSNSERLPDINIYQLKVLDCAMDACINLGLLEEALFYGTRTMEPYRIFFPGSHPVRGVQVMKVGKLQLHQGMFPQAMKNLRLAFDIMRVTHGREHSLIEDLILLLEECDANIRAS

| Structure (SMILES) | IC50 [µM] |
| --- | --- |
| N[C@H]1CC[C@H](NC(=O)c2ccc3ccc(O)nc3c2)CC1 [compound 119, N-((1r,4r)-4-aminocyclohexyl)-2-hydroxyquinoline-7-carboxamide] | 116 |
| CC(NC(=O)c1ccc2ccc(O)nc2c1)C1CCN(C(=O)[C@H](C)N)CC1 (stereo partly drawn) [compound 120, N-(1-(1-(L-alanyl)piperidin-4-yl)ethyl)-2-hydroxyquinoline-7-carboxamide] | 86.9 |
| CC1(CNC(=O)c2ccc3c(c2)CC(=O)N3)CCNCC1 [compound 121, N-((4-methylpiperidin-4-yl)methyl)-2-oxoindoline-5-carboxamide] | 65.7 |
| CCOC(=O)C(NC(=O)c1ccc2c(c1)CC(=O)N2)C1CCNCC1 (centres unmarked) [compound 122, ethyl 2-(2-oxoindoline-5-carboxamido)-2-(piperidin-4-yl)acetate] | 42.3 |
| Nc1ccc(C(=O)N[C@H]2CC[C@H](N)CC2)cn1 [compound 123, 6-amino-N-((1r,4r)-4-aminocyclohexyl)nicotinamide] | 108 |
| N[C@H]1CC[C@H](NC(=O)c2cc(-n3cnnc3)ccc2Cl)CC1 [compound 126, N-((1r,4r)-4-aminocyclohexyl)-2-chloro-5-(4H-1,2,4-triazol-4-yl)benzamide] | 32 |
| N[C@H]1CC[C@H](NC(=O)c2nnc[nH]2)CC1 [compound 127, N-((1r,4r)-4-aminocyclohexyl)-4H-1,2,4-triazole-3-carboxamide] | 16.4 |
| N[C@H]1CC[C@H](NC(=O)Cc2cccnc2)CC1 [compound 129, N-((1r,4r)-4-aminocyclohexyl)-2-(pyridin-3-yl)acetamide] | > 100 |
| NCCC(=O)NC1CCC(NC(=O)c2ccc3c(c2)CC(=O)N3)CC1 (centres unmarked) [compound 130, N-(4-(3-aminopropanamido)cyclohexyl)-2-oxoindoline-5-carboxamide] | 0.29 |
| CCOC(=O)C1(CNC(=O)c2ccc3c(c2)CC(=O)N3)CCNCC1 [compound 131, ethyl 4-((2-oxoindoline-5-carboxamido)methyl)piperidine-4-carboxylate] | 56.3 |
| CCOC(=O)C1(CNC(=O)c2ccc3c(c2)CC(=O)N3)CCN(C(=O)[C@H](C)N)CC1 [compound 132, ethyl 1-(L-alanyl)-4-((2-oxoindoline-5-carboxamido)methyl)piperidine-4-carboxylate] | 0.94 |
| C[C@@H](N)C(=O)N1CC[C@@H](CNC(=O)c2ccc3c(c2)CC(=O)N3)C1 [compound 133, N-(((S)-1-(D-alanyl)pyrrolidin-3-yl)methyl)-2-oxoindoline-5-carboxamide] | 10.7 |
| C[C@H](N)C(=O)N1CC[C@@H](CNC(=O)c2ccc3c(c2)CC(=O)N3)C1 [compound 134, N-(((S)-1-(L-alanyl)pyrrolidin-3-yl)methyl)-2-oxoindoline-5-carboxamide] | 10.2 |
| C[C@H](N)C(=O)N1CC[C@H](CNC(=O)c2ccc3c(c2)CC(=O)N3)C1 [compound 135, N-(((R)-1-(L-alanyl)pyrrolidin-3-yl)methyl)-2-oxoindoline-5-carboxamide] | 13.6 |
| Cc1nc(-c2ccc(C(=O)N[C@H]3CC[C@H](NC(=O)CCN)CC3)cc2)no1 [compound 136, N-((1r,4r)-4-(3-aminopropanamido)cyclohexyl)-4-(5-methyl-1,2,4-oxadiazol-3-yl)benzamide] | > 100 |
| Cc1nc(-c2ccc(C(=O)N[C@H]3CC[C@H](N)CC3)cc2)no1 [compound 137, N-((1r,4r)-4-aminocyclohexyl)-4-(5-methyl-1,2,4-oxadiazol-3-yl)benzamide] | 46.6 |
| CC(NC(=O)c1ccncc1)C1CCN(C(=O)[C@H](C)N)CC1 (stereo partly drawn) [compound 138, N-(1-(1-(L-alanyl)piperidin-4-yl)ethyl)isonicotinamide] | > 100 |
| NCCC(=O)N[C@H]1CC[C@H](NC(=O)c2ccncc2)CC1 [compound 139, N-((1r,4r)-4-(3-aminopropanamido)cyclohexyl)isonicotinamide] | > 100 |
| N[C@H]1CC[C@H](NC(=O)c2ccncc2)CC1 [compound 140, N-((1r,4r)-4-aminocyclohexyl)isonicotinamide] | > 100 |
| CC(NC(=O)c1cccnc1)C1CCN(C(=O)[C@H](C)N)CC1 (stereo partly drawn) [compound 141, N-(1-(1-(L-alanyl)piperidin-4-yl)ethyl)nicotinamide] | > 100 |
| NCCC(=O)N[C@H]1CC[C@H](NC(=O)c2cccnc2)CC1 [compound 142, N-((1r,4r)-4-(3-aminopropanamido)cyclohexyl)nicotinamide] | > 100 |
| N[C@H]1CC[C@H](NC(=O)c2cccnc2)CC1 [compound 143, N-((1r,4r)-4-aminocyclohexyl)nicotinamide] | > 100 |
| CC(NC(=O)c1ncccn1)C1CCN(C(=O)[C@H](C)N)CC1 (stereo partly drawn) [compound 144, N-(1-(1-(L-alanyl)piperidin-4-yl)ethyl)pyrimidine-2-carboxamide] | > 100 |
| NCCC(=O)N[C@H]1CC[C@H](NC(=O)c2ncccn2)CC1 [compound 145, N-((1r,4r)-4-(3-aminopropanamido)cyclohexyl)pyrimidine-2-carboxamide] | > 100 |

| Structure (SMILES) | IC50 [µM] |
| --- | --- |
| CC(NC(=O)c1ccc2c(c1)OCO2)C1CCN(C(=O)[C@H](C)N)CC1 (stereo partly drawn) [compound 146, N-(1-(1-(L-alanyl)piperidin-4-yl)ethyl)benzo[d][1,3]dioxole-5-carboxamide] | > 100 |
| NCCC(=O)N[C@H]1CC[C@H](NC(=O)c2ccc3c(c2)OCO3)CC1 [compound 147, N-((1r,4r)-4-(3-aminopropanamido)cyclohexyl)benzo[d][1,3]dioxole-5-carboxamide] | 98.2 |
| N[C@H]1CC[C@H](NC(=O)c2ccc3c(c2)OCO3)CC1 [compound 148, N-((1r,4r)-4-aminocyclohexyl)benzo[d][1,3]dioxole-5-carboxamide] | > 100 |
| CC(NC(=O)c1cccc(S(C)(=O)=O)c1)C1CCN(C(=O)[C@H](C)N)CC1 (stereo partly drawn) [compound 149, N-(1-(1-(L-alanyl)piperidin-4-yl)ethyl)-3-(methylsulfonyl)benzamide] | > 100 |
| CS(=O)(=O)c1cccc(C(=O)N[C@H]2CC[C@H](NC(=O)CCN)CC2)c1 [compound 150, N-((1r,4r)-4-(3-aminopropanamido)cyclohexyl)-3-(methylsulfonyl)benzamide] | > 100 |
| CS(=O)(=O)c1cccc(C(=O)N[C@H]2CC[C@H](N)CC2)c1 [compound 151, N-((1r,4r)-4-aminocyclohexyl)-3-(methylsulfonyl)benzamide] | > 100 |
| NCCC(=O)N[C@H]1CC[C@H](NC(=O)c2nccnc2N)CC1 [compound 152, 3-amino-N-((1r,4r)-4-(3-aminopropanamido)cyclohexyl)pyrazine-2-carboxamide] | > 100 |
| Nc1nccnc1C(=O)N[C@H]1CC[C@H](N)CC1 [compound 153, 3-amino-N-((1r,4r)-4-aminocyclohexyl)pyrazine-2-carboxamide] | > 100 |
| NCCC(=O)N[C@H]1CC[C@H](NC(=O)c2ccc(-c3ccccc3)cc2)CC1 [compound 154, N-((1r,4r)-4-(3-aminopropanamido)cyclohexyl)-[1,1′-biphenyl]-4-carboxamide] | 37.3 |
| N[C@H]1CC[C@H](NC(=O)c2ccc(-c3ccccc3)cc2)CC1 [compound 155, N-((1r,4r)-4-aminocyclohexyl)-[1,1′-biphenyl]-4-carboxamide] | 79.2 |
| NCCC(=O)N[C@H]1CC[C@H](NC(=O)c2ccc(S(N)(=O)=O)cc2)CC1 [compound 156, N-((1r,4r)-4-(3-aminopropanamido)cyclohexyl)-4-sulfamoylbenzamide] | > 100 |
| CC(NC(=O)c1cncc(F)c1)C1CCN(C(=O)[C@H](C)N)CC1 (stereo partly drawn) [compound 157, N-(1-(1-(L-alanyl)piperidin-4-yl)ethyl)-5-fluoronicotinamide] | > 100 |
| NCCC(=O)N[C@H]1CC[C@H](NC(=O)c2cncc(F)c2)CC1 [compound 158, N-((1r,4r)-4-(3-aminopropanamido)cyclohexyl)-5-fluoronicotinamide] | > 100 |
| N[C@H]1CC[C@H](NC(=O)c2cncc(F)c2)CC1 [compound 159, N-((1r,4r)-4-aminocyclohexyl)-5-fluoronicotinamide] | > 100 |
| N[C@H]1CC[C@H](NC(=O)c2ccc3cc[nH]c3c2)CC1 [compound 160, N-((1r,4r)-4-aminocyclohexyl)-1H-indole-6-carboxamide] | > 100 |
| N[C@H]1CC[C@H](NC(=O)c2ccc3nc[nH]c3c2)CC1 [compound 161, N-((1r,4r)-4-aminocyclohexyl)-1H-benzo[d]imidazole-6-carboxamide] | > 100 |
| CC(NC(=O)c1ccc2ccccc2n1)C1CCN(C(=O)[C@H](C)N)CC1 (stereo partly drawn) [compound 162, N-(1-(1-(L-alanyl)piperidin-4-yl)ethyl)quinoline-2-carboxamide] | > 100 |
| NCCC(=O)N[C@H]1CC[C@H](NC(=O)c2ccc3ccccc3n2)CC1 [compound 163, N-((1r,4r)-4-(3-aminopropanamido)cyclohexyl)quinoline-2-carboxamide] | > 100 |
| N[C@H]1CC[C@H](NC(=O)c2ccc3ccccc3n2)CC1 [compound 164, N-((1r,4r)-4-aminocyclohexyl)quinoline-2-carboxamide] | > 100 |
| NCCC(=O)N[C@H]1CC[C@H](NC(=O)c2ccc3cnccc3c2)CC1 [compound 165, N-((1r,4r)-4-(3-aminopropanamido)cyclohexyl)isoquinoline-6-carboxamide] | 15.5 |
| N[C@H]1CC[C@H](NC(=O)c2ccc3cnccc3c2)CC1 [compound 166, N-((1r,4r)-4-aminocyclohexyl)isoquinoline-6-carboxamide] | 20.7 |
| CC(NC(=O)Cc1c[nH]c2ccccc12)C1CCN(C(=O)[C@H](C)N)CC1 (stereo partly drawn) [compound 167, N-(1-(1-(L-alanyl)piperidin-4-yl)ethyl)-2-(1H-indol-3-yl)acetamide] | > 100 |
| N[C@H]1CC[C@H](NC(=O)Cc2c[nH]c3ccccc23)CC1 [compound 168, N-((1r,4r)-4-aminocyclohexyl)-2-(1H-indol-3-yl)acetamide] | > 100 |

Reference: patent US10266526B2, “Substituted 1,2,3-triazoles as SMYD inhibitors for treating cancer” (EPIZYME, INC., priority 2014, dated 2019)
